Measurements reported in US20250352541A1, “THERAPEUTIC FOR CANCER REFRACTORY TO IMMUNE CHECKPOINT INHIBITOR” (Sumitomo Pharma Co., Ltd., priority 2022, published 2025).

How the values were obtained:
[1] = tested on: Human bone marrow CD34 positive hematopoietic stem cells; assay: Human bone marrow cell myeloid lineage differentiation induction test; assay type: cell-based; settings: 3 nM
Method: Human bone marrow CD34 positive hematopoietic stem cells were obtained from Lonza K. K. The frozen cells were thawed in a 1% fetal bovine serum containing IMDM medium and suspended in a Complete hemaTox® Myeloid Medium. 1000 cells were seeded per well in a 96-well plate. The evaluated compound was added so that the final concentration of DMSO would be 0.1% and 3 nM, and the cells were cultured for 7 days at 37° C. in the presence of 5% CO2. After completion of culture, half of the amount of cell suspension was retrieved from each well. The luminescence was measured using CellTiter-Glo® 3D Reagent (Promega, G968B) to calculate the cell survival percentage by the following equation.

CYP3A4 = CYP3A4 (Homo sapiens (Human), UniProt P08684); assay: CYP3A4 MBI and enzyme inactivation clearance evaluation; assay type: in vitro ADME
Method: The effect and mode of inhibition of the test compound on CYP3A4 were evaluated using a human liver microsome as an enzyme source and midazolam or testosterone as a substrate. […] The IC50 value was calculated from a concentration plot.

[2] = tested on: Human bone marrow CD34 positive hematopoietic stem cells; assay: Human bone marrow cell colony formation test (hemotoxicological evaluation); assay type: cell-based; settings: 100 nM; for Colony count (/well) mean: 48 hours, then about 2 weeks culture
Method: Human bone marrow CD34 positive hematopoietic stem cells were obtained from Lonza K.K. The frozen cells were thawed in a medium prepared by mixing a Methocult Express medium and a 10% fetal bovine serum with 1% penicillin/streptomycin containing RPMI 1640 medium at 9:1. 5000 cells were seeded per well in a 6 well plate and cultured overnight at 37° C. in the presence of 5% CO2. The evaluated compound was added so that the final concentration of DMSO would be 0.1% and 100 nM, and the cells were cultured for 48 hours. The cells were retrieved and washed with PBS. ⅙ of the amount of cells was seeded in a 12 well plate and cultured for about 2 weeks at 37° C. in the presence of 5% CO2. After completion of culture, the number of colonies formed was calculated using Thiazolyl blue tetrazolium bromide (MTT).

hERG current = hERG current (Homo sapiens (Human), UniProt Q12809); assay: hERG current blocking test; settings: IC50 of hERG divided by IC50 of CHK1 inhibition
Method: The test compounds were added to cultured hERG (human Ether-a-go-go Related Gene) gene stably expressing CHO cell line cells to achieve 0.27 to 100 μM.

[3] = Liposome encapsulation test of Example 1 (Test Example 6a); assay type: physicochemical
[4] = tested on: mouse renal cancer cells Renca; assay: Intracytoplasmic ssDNA evaluation test in cells; assay type: cell-based; settings: 24 hours treatment, versus DMSO
Method: (§1) After 24 hours from seeding of mouse breast cancer cells EMT6 and mouse renal cancer cells Renca, the cells were treated with Example 1 and DMSO and cultured for 24 hours. Thereafter, the cells were collected, and cytoplasmic components were extracted using NE-PER Nuclear and Cytoplasmic Extraction so Reagents (Thermo Fisher Scientific Inc.). After protein quantification and concentration adjustment, ssDNA was quantified using Qbit ssDNA Assay Kit (Thermo Fisher Scientific Inc.).

[5] = tested on: mouse breast cancer cells EMT6; assay: Intracytoplasmic ssDNA evaluation test in cells; assay type: cell-based; settings: EMT6, 24 hours treatment, versus DMSO
Method: as §1

ES-2 cells [6] = assay: Cell growth suppression experiment; assay type: cell-based
Method: ES-2 cells were obtained from the American Type Culture Collection (ATCC). These cells were cultured at 37° C. in the presence of 5% CO2 in a 10% fetal bovine serum, 1% penicillin/streptomycin containing McCoy's 5a medium.
500 cells were seeded for each well in a 384-well plate, and the evaluated compound was added so that the final concentration of DMSO would be 0.1% to culture the cells for 2 days. After completion of the culture, the cell viability rate was calculated using CellTiter-Glo® 3D Reagent (Promega, G968B).
The results of cell growth suppression test on representative compounds of the present disclosure are listed in the following table based on the ranking of I, IT, III, IV, and V (1000 nM<I, 1000 nM>TI>300 nM, 300 nM>III>100 nM, 100 nMV>IV>30 nM, 30 nM>V).

[7] = Liposome encapsulation test (Test Example 6); assay type: physicochemical
Method: 6.48 g of hydrogenated soybean phosphatidylcholine (COATSOME NC-21E, NOF Corporation), 2.32 g of cholesterol (Sigma) and 2.06 g of distearoylphosphatidylethanolamine-methoxypolyethylene glycol 2000 (SUNBRIGHT DSPE-020CN, NOF Corporation) were dissolved in 560 mL of t-butyl alcohol heated to 65° C. The solution was frozen with dry ice/acetone bath and t-butyl alcohol was then removed by evaporation under reduced pressure to obtain a lipid mixture.
200 mL of 250 mM ammonium sulfate solution was added to the lipid mixture. The resulting mixture was heated to 65° C. and dispersed with a homogenizer (ULTRA-TURRAX, IKA) to obtain a crude liposome dispersion. […] The prepared amount was increased or decreased appropriately.
2 to 3 mg of the test compound was weighed out. […] An aqueous 1 mol/L hydrochloric acid or 1 mol/L sodium hydroxide solution was added to adjust the pH to 5.5 to 7. […] Insolubles, when present, were removed by centrifugation for 5 minutes at 15,000× g.
The liposome encapsulation ratio was calculated as follows.
100 μL of liposome solution was passed through an ultrafiltration filter (Amicon Ultra, 100K, 0.5 mL, Merck), and centrifuged at 4° C. at 15,000×g for 10 minutes. The concentration of the compound in the filtrate after ultrafiltration was measured by HPLC as the unencapsulated compound concentration.
The liposome solution was diluted with a trifluoroacetic acid/water/methanol mixture (0.1/25/75) and was left standing for 10 minutes or longer at 5° C. The solution was centrifuged for 5 minutes at 15,000× g to remove insolubles. The compound concentration in the supernatant was measured by HPLC as the compound concentration in the liposome solution.
The encapsulation ratio and the encapsulation efficiency were calculated by the following equations.
HPLC measurement conditions are the following.

CHK1 = CHK1 (Homo sapiens (Human), UniProt O14757); assay: CHK1 inhibitory activity test (IMAP TR-FRET)
Method: IMAP TR-FRET Screening Express Kit (R8160) was obtained from Molecular Devices. […] FAM-PKAtide (R7255, Molecular Devices) and FAM-Phospho-PKAtide (R7304, Molecular Devices) were admixed after dilution, and calibration standard systems for phosphorylation levels from 0 to 100% were created. 5 μL of a compound dissolved in a 0.4% DMSO solution was added to a 384 well plate. A compound study group to which 5 μL of each of CHK1, CHK1tide, and ATP was added, and a standard group to which 20 μL of standard was added were created, and subjected to a kinase reaction for 3 hours at 30° C. Subsequently, 60 μL of Binding Reagent (80% Buffer A, 20% Buffer B, 1:600 Binding Reagent, 1:400 Tb-Donor) was added for a binding reaction for 2 hours at room temperature.

[8] = tested on: head and neck squamous cell carcinoma; settings: head and neck squamous cell carcinoma (Non Patent Literature 7); cited from earlier work
ARK5/NUAK1 = ARK5/NUAK1 (Homo sapiens (Human), UniProt O60285); assay: Kinase selectivity test (HotSpot Full Panel Kinase profiling); assay type: biochemical; settings: ARK5/NUAK1, compound 100 nM, ATP 10 μm; read-out: Residual activity (%)
neutrophils = settings: 30 mg/kg, 14 days, 2 times/week, blood 96 hours after the final administration
Method: The test compound was weighed out. An empty liposome solution with a total lipid concentration of 50 mM was added so that the compound concentration would be 2 mg/mL, and 1 mol/L hydrochloric acid was added to adjust the pH to 6 to 7. Alternatively, 10 mM L-histidine buffer/10% sucrose solution (pH 6.5) and hydrochloric acid were added to the test compound to dissolve or disperse the compound, and an empty liposome solution with a total lipid concentration of 75 mM was added so that the compound concentration would be 2 mg/mL, and the pH was adjusted to 6 to 7.
Blood was collected 96 hours after the final administration to measure the neutrophil count.

ES-2 cells [9] = assay: Concomitantly used drug efficacy evaluation test using tumor-bearing mice transplanted with ES-2 cells (gemcitabine); assay type: in vivo, BALB/c-nu/nu mice; settings: Peritoneal, 30 mg/kg, 14 days, 2 times/week
Source text: The test compound was weighed out.

[10] = concentration upon compound introduction 2 mg/mL
[11] = concentration upon compound introduction 3 mg/mL

Sequence of CHK1 (O14757 whole entry): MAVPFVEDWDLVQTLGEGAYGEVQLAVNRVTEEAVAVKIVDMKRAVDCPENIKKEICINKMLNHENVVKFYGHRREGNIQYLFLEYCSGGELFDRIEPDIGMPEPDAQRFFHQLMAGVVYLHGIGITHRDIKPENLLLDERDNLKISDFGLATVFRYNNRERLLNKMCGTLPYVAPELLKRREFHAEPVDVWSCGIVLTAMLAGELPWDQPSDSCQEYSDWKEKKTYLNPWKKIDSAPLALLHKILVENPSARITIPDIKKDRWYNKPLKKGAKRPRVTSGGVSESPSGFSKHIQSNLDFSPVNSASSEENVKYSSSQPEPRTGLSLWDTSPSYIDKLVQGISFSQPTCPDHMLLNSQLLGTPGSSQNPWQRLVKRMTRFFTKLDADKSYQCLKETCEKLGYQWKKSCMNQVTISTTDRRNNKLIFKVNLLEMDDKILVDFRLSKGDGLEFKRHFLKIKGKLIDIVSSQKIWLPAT
Sequence of CYP3A4 (P08684 whole entry): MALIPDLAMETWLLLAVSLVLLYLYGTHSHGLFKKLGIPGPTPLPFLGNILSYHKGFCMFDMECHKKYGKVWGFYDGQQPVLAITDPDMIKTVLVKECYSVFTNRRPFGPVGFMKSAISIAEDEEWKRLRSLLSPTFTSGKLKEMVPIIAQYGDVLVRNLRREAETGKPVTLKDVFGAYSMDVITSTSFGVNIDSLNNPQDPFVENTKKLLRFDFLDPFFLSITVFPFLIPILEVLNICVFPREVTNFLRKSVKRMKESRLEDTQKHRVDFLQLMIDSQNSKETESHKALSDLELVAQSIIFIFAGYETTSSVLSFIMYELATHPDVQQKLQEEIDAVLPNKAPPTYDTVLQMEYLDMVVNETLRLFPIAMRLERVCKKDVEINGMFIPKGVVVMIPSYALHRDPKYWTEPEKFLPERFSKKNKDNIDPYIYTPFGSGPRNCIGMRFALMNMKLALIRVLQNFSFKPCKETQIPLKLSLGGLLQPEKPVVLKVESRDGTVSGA
Sequence of hERG current (Q12809 whole entry): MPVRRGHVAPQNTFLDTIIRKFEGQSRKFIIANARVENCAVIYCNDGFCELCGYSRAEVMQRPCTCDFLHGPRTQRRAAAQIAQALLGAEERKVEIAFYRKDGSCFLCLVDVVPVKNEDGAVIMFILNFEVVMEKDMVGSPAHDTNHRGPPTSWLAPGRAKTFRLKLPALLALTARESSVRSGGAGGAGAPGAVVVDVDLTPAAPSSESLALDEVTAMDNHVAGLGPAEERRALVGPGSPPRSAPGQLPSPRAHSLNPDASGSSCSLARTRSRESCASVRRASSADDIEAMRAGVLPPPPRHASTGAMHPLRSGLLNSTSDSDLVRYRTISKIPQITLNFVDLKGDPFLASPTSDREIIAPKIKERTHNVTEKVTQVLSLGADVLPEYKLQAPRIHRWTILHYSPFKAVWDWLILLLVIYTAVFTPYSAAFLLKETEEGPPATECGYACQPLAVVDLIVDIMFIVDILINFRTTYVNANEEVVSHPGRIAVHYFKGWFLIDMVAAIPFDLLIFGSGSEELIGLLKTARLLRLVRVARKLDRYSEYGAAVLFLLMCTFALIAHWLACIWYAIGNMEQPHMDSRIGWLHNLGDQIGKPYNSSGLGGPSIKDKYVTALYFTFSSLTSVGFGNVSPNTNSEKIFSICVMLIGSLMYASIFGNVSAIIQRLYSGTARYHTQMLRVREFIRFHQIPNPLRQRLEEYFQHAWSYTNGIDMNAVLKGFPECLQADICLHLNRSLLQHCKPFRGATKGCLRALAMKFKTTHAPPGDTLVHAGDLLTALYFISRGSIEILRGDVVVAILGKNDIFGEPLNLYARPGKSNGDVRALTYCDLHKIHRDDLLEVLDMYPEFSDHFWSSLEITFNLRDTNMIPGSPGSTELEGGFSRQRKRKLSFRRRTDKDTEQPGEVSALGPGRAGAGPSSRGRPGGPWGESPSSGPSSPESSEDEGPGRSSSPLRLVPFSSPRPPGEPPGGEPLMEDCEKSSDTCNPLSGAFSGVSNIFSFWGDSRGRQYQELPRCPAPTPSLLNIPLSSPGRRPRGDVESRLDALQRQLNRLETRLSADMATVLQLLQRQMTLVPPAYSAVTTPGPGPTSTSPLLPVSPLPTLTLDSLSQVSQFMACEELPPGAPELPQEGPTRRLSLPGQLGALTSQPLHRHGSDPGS
Sequence of ARK5/NUAK1 (O60285 whole entry): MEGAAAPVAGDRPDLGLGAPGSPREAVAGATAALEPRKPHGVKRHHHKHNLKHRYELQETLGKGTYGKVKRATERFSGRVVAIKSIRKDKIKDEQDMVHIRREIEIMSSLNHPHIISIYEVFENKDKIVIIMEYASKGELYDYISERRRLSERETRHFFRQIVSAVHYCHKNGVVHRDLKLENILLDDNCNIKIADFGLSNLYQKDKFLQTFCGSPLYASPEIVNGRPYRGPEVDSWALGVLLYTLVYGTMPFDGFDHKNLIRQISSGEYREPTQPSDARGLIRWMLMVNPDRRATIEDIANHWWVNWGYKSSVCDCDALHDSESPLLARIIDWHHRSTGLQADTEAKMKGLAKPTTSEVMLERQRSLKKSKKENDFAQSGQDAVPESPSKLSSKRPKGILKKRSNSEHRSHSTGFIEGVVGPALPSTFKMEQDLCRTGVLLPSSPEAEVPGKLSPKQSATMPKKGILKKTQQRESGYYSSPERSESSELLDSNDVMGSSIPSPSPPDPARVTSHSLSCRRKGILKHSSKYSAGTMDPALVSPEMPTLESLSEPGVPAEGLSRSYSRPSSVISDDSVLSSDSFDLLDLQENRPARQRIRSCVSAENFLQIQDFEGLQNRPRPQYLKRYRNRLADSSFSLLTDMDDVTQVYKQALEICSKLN

## COc1ccnc(OCCCN)c1-c1cc(Nc2cnc(C#N)cn2)n[nH]1 [Example 1, 5-({5-[2-(3-aminopropoxy)-4-methoxypyridin-3-yl]-1H-pyrazol-3-yl}amino)pyrazine-2-carbonitrile]
[1]
  effect of suppressing myeloid cells induced to differentiate from human bone marrow cells: does not exhibit an effect of suppressing myeloid cells induced to differentiate from human bone marrow cells
CYP3A4
  inhibition of CYP3A4 based on MBI: do not exhibit inhibition of CYP3A4 based on MBI
CYP3A4; human liver microsome, pre-incubation in the presence of NADPH
  Factor of change in IC50 value: Not Detected
[2]
  effect of suppressing human bone marrow cell colony formation: does not exhibit an effect of suppressing human bone marrow colony formation
  Colony count (/well) mean: 34 /well
hERG current
  hERG/CHK1: >115000
[3]
  liposome encapsulation efficiency: ≥ 90%
[3]; [10]
  Encapsulation efficiency (%): 91.3%
[3]; [11]
  Encapsulation efficiency (%): 91.6%
[3]; concentration upon compound introduction 4 mg/mL
  Encapsulation efficiency (%): 92.2%
[4]
  increase of ssDNA in cytoplasm: 1.5 times
[5]
  increase of ssDNA in cytoplasm: 1.3 times
ES-2 cells [6]
  cell growth suppression effect compared with prexasertib: excellent cell growth suppression effect that is equivalent to that of prexasertib
[7]
  encapsulation efficiency: ≥ 80%
[7]; [11]
  Encapsulation efficiency (%): 87.4%
[7]; pH adjusted by adding 1 mol/L hydrochloric acid
  liquid viscosity during the liposome encapsulation procedure: increase in viscosity was not found
CHK1
  CHK1 inhibitory activity relative to prexasertib: ≥ 5 fold
  IC50: < 0.1 nM
  effect of suppressing CHK1 activity compared with prexasertib: more potent effect of suppressing CHK1 activity than prexasertib

## nivolumab
[8]
  overall response rate: 13.3%

## COc1cccc(OCCCN)c1-c1cc(Nc2cnc(C#N)cn2)n[nH]1 [Prexasertib, reference compound]
[1]
  effect of suppressing myeloid cells induced to differentiate from human bone marrow cells: exhibited an effect of suppressing myeloid cells induced to differentiate from human bone marrow cells
CYP3A4
  inhibition of CYP3A4 based on MBI: exhibits inhibition of CYP3A4 based on MBI
[2]
  effect of suppressing human bone marrow cell colony formation: exhibits an effect of suppressing human bone marrow cell colony formation
  Colony count (/well) mean: 19 /well
ARK5/NUAK1
  remaining activity at 0.1 µM: 17.9%
[7]; [10]
  Compound concentration in liposome solution: 2160 µg/mL

## Nc1ccn([C@@H]2O[C@H](CO)[C@@H](O)C2(F)F)c(=O)n1 [Gemcitabine]
neutrophils
  Ratio of residual neutrophils (%): 39%
ES-2 cells [9]
  CR (%): 0%
  T/C (%): 9%
